Measured values as given in US12090122B2, “Curcumin-based compositions and methods of use thereof” (priority 2017, dated 2024).

Assays:
Format in all cases: cell-based
NFkB-p65 = test: Western blot of cytoplasmic and nuclear NFkB-p65 protein levels (nucleotranslocation) in LPS-induced BV2 cells; conditions: 22.0 μg/ml, 30 min pre-treatment, LPS induction, FIGS. 3 and 4
Procedure: (§1) Example 2—Western Blot Analysis of Cytoplasmic and Nuclear MSK1 Levels. Western blot analysis was performed in multiple varying formats before optimization was achieved. The BV2 microglia cell line was cultured in Dulbecco's Modified Eagle's Medium (DMEM)—complete medium. The complete medium consisted of DMEM, 1% Ampicillin, and 10% Fetal Bovine Serum (FBS). BV2 microglia cells, at a cell count of approximately 2×10^6, were seeded in each well (6 wells per plate) with 2.0 ml complete medium and cultured overnight in a ThermaForma HepaFilter Series II CO2 Incubator at 37° Celsius. Upon establishing confluence, subconfluent cells were washed out and the wells were prepared with drug pre-treatment after overnight incubation.
(§2) The test drugs (curcuminoids) were procured as follows: curcumin I research standard (03926) (ChromaDex Irvine, CA USA) (97.7% purity); curcumin II research standard (04230) (ChromaDex Irvine, CA USA) (97.3%); curcumin III research standard (B6938) (Sigma-Aldrich St. Louis, Missouri, USA) (97.7% purity); curcumin extract (curcumin I—77.7%, curcumin II—16.9%, curcumin III—0.9%) research standard (03928) (ChromaDex Irvine, CA USA) (95.3% purity); and Lipopolysaccharide (LPS) from E. Coli (L2630) (Sigma-Aldrich St. Louis, Missouri, USA).
(§3) Curcuminoids are not soluble in aqueous medium due to their hydrophobic characteristic. However, curcuminoid extracts are soluble in polar organic solvents, such as DMSO and acetone. In this Example, each curcuminoid preparation was first dissolved in DMSO. DMSO was used in the drug preparation at 0.2%. The drug/DMSO solution was subsequently dissolved in DMEM to achieve a final drug concentration for each curcuminoid preparation tested—22.0 μg/ml curcuminoid. […]
(§4) Total protein concentration for each fraction was determined using a Bio Rad Protein Assay that is based on the Bradford Assay (dye-binding method). […]
(§5) The targets analyzed in the Western Blot included NFkB-p65 and its nucleocytoplasmic translocation, as well as kinases (including MSK1) and their covalent modifications upstream of and involved in the regulation of NFkB. […]

[1] = test system: NFkB p65 phosphorylated at the serine 276 phosphosite; test: Western blot of NFkB-p65 phosphorylated at serine 276 in LPS-induced BV2 cells; conditions: 22.0 μg/ml, 30 min pre-treatment, LPS induction, cytoplasmic and nuclear, FIGS. 5 and 6
Procedure: as §1, §2, §3, §4, §5

[2] = test system: MSK1 phosphorylated at the serine 376 phosphosite; test: Western blot of MSK1 phosphorylated at serine 376 in LPS-induced BV2 cells; conditions: 22.0 μg/ml, 30 min pre-treatment, LPS induction, FIGS. 9 and 10
Procedure: as §1, with “incubation. […]” for “incubation.”
as §4, §5

Structure (SMILES) | NFkB-p65 nucleotranslocation (cytosolic and nuclear NFkB-p65 levels relative to total protein) (NFkB-p65) | NFkB-p65 serine 276 phosphorylation [1] | MSK1 serine 376 phosphorylation [2]
COc1cc(/C=C/C(=O)CC(=O)/C=C/c2ccc(O)cc2)ccc1O [curcumin II, (1E,6E)-1-(4-Hydroxy-3-methoxyphenyl)-7-(4-hydroxyphenyl)hepta-1,6-diene-3,5-dione] | not significantly inhibited | moderately inhibit | inhibit
COc1cc(/C=C/C(=O)/C=C(O)/C=C/c2ccc(O)c(OC)c2)ccc1O [curcumin I, (1E,6E)-1,7-Bis(4-hydroxy-3-methoxyphenyl)-1,6-heptadiene-3,5-dione, reference compound] | not significantly inhibited | moderately inhibit | –
O=C(/C=C/c1ccc(O)cc1)CC(=O)/C=C/c1ccc(O)cc1 [curcumin III, (1E,6E)-1,7-bis(4-hydroxyphenyl)hepta-1,6-diene-3,5-dione] | not significantly inhibited | moderately inhibit | –
